Data taken from patent US6555091B1, “Polypeptide capable of reacting with antibodies of patients suffering from multiple sclerosis and uses” (Bio Merieux, priority 1997, dated 2003).
No end group written: not given here.

What was measured:
Assay type in all cases: binding, human
[1] = test system: IgG of pool of positive sera (MS remission sera); test: ELISA of pentadecapeptide phage clones, pool of positive sera versus pool of negative sera; settings: phage clones carrying the sequence; 1/200 serum dilution; pool of positive sera compared with pool of negative sera
Protocol: In a first instance, 100 μl of anti-M13 phage antibodies diluted 1/500 in 0.1M NaHCO3, pH 8.6 (marketed by Prinn, Inc. Boulder, Colo. 80303) are bound overnight in the wells of Nunc maxisorb (trade name) microtiter plates. After three washes with TBS/0.05% Tween, the plates are passivated for 1 hour at 37° C. with 250 μl of TBS containing 10% goat serum and again washed three times with the same buffer. 100 μl of various purified phage clones are then incubated for 2 hours at 37° C. in the wells. […] After four washes in TBS/0.05% Tween, 100 μl of peroxidase-labeled anti-human IgG conjugate diluted 1/10,000 (marketed by Jackson Immuno Research Laboratories Inc.) are added before an incubation for one hour at 37° C. […] The staining reaction is interrupted by the addition of 50 μl of 1.8N sulfuric acid. The optical density is measured on a BioMérieux plate reader at 492 nm. The IgM response is determined by addition of 100 μl of biotinylated anti-IgM conjugate diluted 1/4000 (Biomérieux monoclonal antibody) followed by the addition, after the washes, of the streptavidin-peroxidase conjugate diluted 1/10,000.
A library of pentadecapeptides carried on 300 copies of the phage protein VIII was constructed on the same principle as the hexapeptide library using the vector f88-4 according to the work by Greewood et al. (J. Biol. Mol. 1991). […]

[2] = test system: IgM of cerebrospinal fluids from patients suffering from MS; test: ELISA of pentadecapeptide phage clones, IgM response of CSFs (FIG. 6); settings: CSF 4 and CSF 7 (MS), CSF 12 (other neurological disease), CSFs diluted 1/10
Excerpt: FIG. 6 represents the IgM response of the CSFs with respect to phages expressing the sequences SEQ ID NO: 14 (EPM), SEQ ID NO: 13 (FCP), SEQ ID NO: 16 (SRG), SEQ ID NO: 17 (QSP) , with respect to the wild-type phage (without an expressed sequence) and another nonspecific sequence (RTG); this representation is given by a histogram grouping together the results expressed as optical density values obtained for each CSF reduced by those obtained with PBS buffer controls in place of the phages; the immunoreactivity of the phage clones is tested in ELISA as described in Example 2, with respect to CSFs diluted 1/10; CSF 12 corresponds to a patient suffering from a neurological disease other than MS; CSF 4 and CSF 7 correspond to two patients suffering from MS.
In a first instance, 100 μl of anti-M13 phage antibodies diluted 1/500 in 0.1M NaHCO3, pH 8.6 (marketed by Prinn, Inc. Boulder, Colo. 80303) are bound overnight in the wells of Nunc maxisorb (trade name) microtiter plates. […] The optical density is measured on a BioMérieux plate reader at 492 nm. The IgM response is determined by addition of 100 μl of biotinylated anti-IgM conjugate diluted 1/4000 (Biomérieux monoclonal antibody) followed by the addition, after the washes, of the streptavidin-peroxidase conjugate diluted 1/10,000. […]

[3] = test system: IgG of CSF from patients suffering from MS; test: ELISA of polypeptides, IgG response of CSFs diluted 1/10 (Table 5, FIGS. 7A and 7B); design: key to IgG recognition by CSF: positive (+) if the OD value at 492 nm for a 1/10 dilution of the CSF is greater than the mean values obtained for the CSFs from the ND patients+3 times the standard deviation; settings: for number of positive (+) CSFs: total line, 15 MS patients, CSF 1/10
Excerpt: FIGS. 7A and 7B represents the IgG response of the polypeptides whose peptide sequence consists of, respectively, SEQ ID NO: 13, SEQ ID NO: 12, SEQ ID NO: 14, SEQ ID NO: 16, SEQ ID NO: 19 and SEQ ID NO: 15, with respect to CSFs diluted 1/10; the results assembled in the appended Table 5 are expressed by the difference in the optical density values obtained for the polypeptide tested and the values obtained for the HIV polypeptide used as control; ND corresponds to patients suffering from a neurological disease other than MS, and MS* corresponds to patients suffering from MS.
Table 5, illustrated in FIGS. 7A and 7B, collates the results on the specific recognition of CSF from patients suffering from MS for 6 polypeptides of the invention, SEQ ID NO: 13, SEQ ID NO: 12, SEQ ID NO: 14, SEQ ID NO: 16, SEQ ID NO: 19 and SEQ ID NO: 15.
For each polypeptide tested, identified in Table 5 by its peptide sequence, the CSFs from patients 1-22 suffering from Ms are determined as positive (+) if the OD value at 492 nm for a 1/10 dilution of the CSF is greater than the mean values obtained for the CSFs from the ND patients+3 times the standard deviation.

| Sequence | average positive IgG response [1] | recognition of the phage clone by CSFs [2] | IgG recognition by CSF ([3]; CSF of MS patient 1, 1/10) | IgG recognition by CSF ([3]; CSF of MS patient 2, 1/10) | IgG recognition by CSF ([3]; CSF of MS patient 3, 1/10) | IgG recognition by CSF ([3]; CSF of MS patient 5, 1/10) | IgG recognition by CSF ([3]; CSF of MS patient 7, 1/10) | IgG recognition by CSF ([3]; CSF of MS patient 10, 1/10) | IgG recognition by CSF ([3]; CSF of MS patient 18, 1/10) | IgG recognition by CSF ([3]; CSF of MS patient 21, 1/10) | number of positive (+) CSFs [3] | IgG recognition by CSF ([3]; CSF of MS patient 8, 1/10) | IgG recognition by CSF ([3]; CSF of MS patient 20, 1/10) |
| --- | --- | --- | --- | --- | --- | --- | --- | --- | --- | --- | --- | --- | --- |
| NACYVDLFLGASVCP (cysteine pairing not given here) [SEQ ID NO: 10, pentadecapeptide carried by phage clones] | 0.069 | – | – | – | – | – | – | – | – | – | – | – | – |
| EPMTPHQWITLYRSY (MSRV) [SEQ ID NO: 14] | – | recognized only by CSF 7 | + | + | + | + | + | + | + | + | 8+ | – | – |
| FCPPILPYSAWCPVP (MSRV) [SEQ ID NO: 13] | – | recognized specifically by CSFs 7 and 4 | + | + | + | + | + | + | + | + | 10+ | + | + |
| SSAKSHCYAFCSGLP (cysteine pairing not given here) [SEQ ID NO: 11, pentadecapeptide carried by phage clones] | 0.248 | – | – | – | – | – | – | – | – | – | – | – | – |
